# Results published in PubChem BioAssay AID1963449 (Molecular Pharmacology Branch, DTP, NCI, 2024).
# Tested on: 596521-263-R-J1-PDC complex spheroid growth
# Test: Anticancer human tumor 596521-263-R-J1-PDC patient-derived soft tissue sarcoma cell line growth inhibition [Asc]
# Details: for IC50: curve of first compound; for viability, T/C: stronger effect = lower value
# Method: Multicellular complex tumor spheroid response to apoptosis pathway targeting inhibitors Alrizomadlin, Pelcitoclax, and Dasminapant in combination with a variety of drugs and investigational agents in selected tumor cell lines
# The MDM2 inhibitor alrizomadlin, the Bcl-2/Bcl-xL inhibitor pelcitoclax, and the IAPs inhibitor dasminapant were evaluated both individually and in combination with standard of care and investigational anticancer small molecules within a complex spheroid model of solid tumors. . Complex spheroids include a stromal component modeled by human endothelial cells (HUVEC) and fibroblasts modeled by human mesenchymal stem cells (MSCs). The concentration ranges selected for each drug and investigational agent were based upon clinically achievable concentrations if the clinical Cmax of the agent was known.
# Compounds. The drugs and investigational agents: alrizomadlin (APG-115; NSC831270), pelcitoclax (APG-1252; NSC835773), dasminapant (APG-1387;NSC834197), TAK-243 (NSC785004), copanlisib (NSC809693), olaparib (NSC753686), talazoparib (NSC767125), cobimetinib (NSC 768068), eltanexor (KPT-8602, NSC 794443), abemaciclib (NSC 768073), sotorasib (NSC818433), adagrasib (NSC 831453), MRTX-1133 (NSC 836407), Iadademestat (ORY1001, NSC 806812), and RMC-4630 (NSC839698), were obtained from the NCI Developmental Therapeutics Program Chemical Repository. The FDA-approved anticancer drug set is available from the Developmental Therapeutics Program at https://dtp.cancer.gov/organization/dscb/obtaining/available plates.htm. […] The stock solutions were prepared in dimethyl sulfoxide (DMSO, Sigma-Aldrich, St. Louis, MO, cat. D2650) at 800-fold the tested concentration and stored at -70 degrees C prior to their use. All drugs and investigational agents were tested over a range starting from a high concentration at or near the clinical Cmax and decreasing in half-log increments. If the clinical Cmax for an agent had not been determined, the highest concentration tested was 10 microM.
# The patient-derived cancer (PDC) cell lines include five colon adenocarcinomas: 186277-243-T-J2-PDC, 616215-338-R-J1-PDC, 439559-082-T-J2-PDC, 463943-066-T-J2-PDC, and 519858-162-T-J1-PDC; three pancreatic carcinomas: 323965-272-R-J2-PDC, 521955-158-R6-J3-PDC, and 521955-158-R2-J5-PDC; two uterine sarcomas: 327498-152-R-J2-PDC and 993429-296-R-J1-PDC; two rhabdomyosarcomas: 755483-174-R-J1-PDC and 772245-204-R-J1-PDC; two soft tissue sarcomas: 126254-015-R-J1-PDC and 494315-158-R-J1-PDC; two malignant fibrous histiocytomas: 317291-083-R-J1-PDC and 596521-263-R-J1-PDC; two breast carcinomas: 171881-019-R-J1-PDC and 885512-296-R-J2-PDC; and one ovarian carcinoma: 6556581-035-R-J-PDC were obtained from the NCI PDMR, (https://pdmr.cancer.gov). The established cell lines HSSY-2 synovial sarcoma (RRID:CVCL 8719), SYO-1 synovial sarcoma (RRID:CVCL_7146), MPNST malignant peripheral neural sheath tumor were obtained from the Sloan Kettering Institute. The following established cell lines were purchased from the American Type Culture Collection (ATCC, Manassas, VA), Sor the received from the NCI repository:, PANC-1 pancreatic carcinoma (CRL-1469, RRID:CVCL_0480), OVCAR-5 ovarian carcinoma (RRID:CVCL_1628), OVCAR-8 ovarian carcinoma (RRID:CVCL_1629), , MCF-7 breast carcinoma (CRL-12584, RRID:CVCL_0031), MDA-MB-231 breast carcinoma (CRL-12532, RRID:CVCL_0062), NCI-H1876 small cell lung carcinoma (CRL-5902, RRID:CVCL_1503), NCI-H510A small cell lung carcinoma (HTB-184, RRID:CVCL_1565), NCI-H1417 (CRL-5869, RRID:CVCL_1469), and NCI-H196 small cell lung carcinoma (CRL-5823, RRID:CVCL_1509). Dr. Peter Houghton (Greehey Children's Cancer Research Institute, University of Texas Health Science Center, San Antonio, TX) provided Rh-18 rhabdomyosarcoma (RRID:CVCL_1659). Pooled donor human umbilical vein endothelial cells (HUVEC, Lonza, cat. CC-2519) and human mesenchymal stem cells (hMSC, Lonza, cat. PT-2501) were purchased from Lonza (Walkersville, MD).
# Cell Culture. […]
# [1] = second compound 0.00949 µM, first compound 0.0316 µM
# [2] = second compound 0.00949 µM, first compound 0.1 µM
# [3] = second compound 0.03 µM, first compound 0.0316 µM
# [4] = second compound 0.03 µM, first compound 0.1 µM
# [5] = second compound 0.0949 µM, first compound 0.0316 µM
# [6] = second compound 0.0949 µM, first compound 0.1 µM
# [7] = second compound 0.3 µM, first compound 0.0316 µM
# [8] = second compound 0.3 µM, first compound 0.1 µM
# [9] = second compound 0.949 µM, first compound 0.0316 µM
# [10] = second compound 0.949 µM, first compound 0.1 µM
# [11] = second compound 3 µM, first compound 0.0316 µM
# [12] = second compound 3 µM, first compound 0.1 µM
# 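Also: spheroids exposed to compounds for 7 days.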
structure (smiles),measurement,setting,value
Cn1ncnc1[C@H]1c2n[nH]c(=O)c3cc(F)cc(c23)N[C@@H]1c1ccc(F)cc1 + CCN1C(C(=O)NC23CCC(C(=O)O)(CC2)CC3)C(c2cccc(Cl)c2F)C2(C(=O)Nc3cc(Cl)ccc32)C12CCCCC2,IC50,second compound 0.00949 µM,> 0.1 µM
same,IC50,second compound 0.03 µM,> 0.1 µM
same,IC50,second compound 0.0949 µM,> 0.1 µM
same,IC50,second compound 0.3 µM,> 0.1 µM
same,IC50,second compound 0.949 µM,> 0.1 µM
same,IC50,second compound 3 µM,> 0.1 µM
same,"viability, T/C","second compound 0.00949 µM, first compound 0.000316 µM",109%
same,"viability, T/C","second compound 0.00949 µM, first compound 0.001 µM",94.8%
same,"viability, T/C","second compound 0.00949 µM, first compound 0.00316 µM",96.6%
same,"viability, T/C","second compound 0.00949 µM, first compound 0.01 µM",91.8%
same,"viability, T/C",[1],88.4%
same,"viability, T/C",[2],81.8%
same,"viability, T/C","second compound 0.03 µM, first compound 0.000316 µM",103%
same,"viability, T/C","second compound 0.03 µM, first compound 0.001 µM",98.1%
same,"viability, T/C","second compound 0.03 µM, first compound 0.00316 µM",100%
same,"viability, T/C","second compound 0.03 µM, first compound 0.01 µM",105%
same,"viability, T/C",[3],90.1%
same,"viability, T/C",[4],81.1%
same,"viability, T/C","second compound 0.0949 µM, first compound 0.000316 µM",104%
same,"viability, T/C","second compound 0.0949 µM, first compound 0.001 µM",102%
same,"viability, T/C","second compound 0.0949 µM, first compound 0.00316 µM",106%
same,"viability, T/C","second compound 0.0949 µM, first compound 0.01 µM",88.7%
same,"viability, T/C",[5],87.8%
same,"viability, T/C",[6],78.6%
same,"viability, T/C","second compound 0.3 µM, first compound 0.000316 µM",104%
same,"viability, T/C","second compound 0.3 µM, first compound 0.001 µM",99.9%
same,"viability, T/C","second compound 0.3 µM, first compound 0.00316 µM",110%
same,"viability, T/C","second compound 0.3 µM, first compound 0.01 µM",108%
same,"viability, T/C",[7],104%
same,"viability, T/C",[8],87.3%
same,"viability, T/C","second compound 0.949 µM, first compound 0.000316 µM",102%
same,"viability, T/C","second compound 0.949 µM, first compound 0.001 µM",91.2%
same,"viability, T/C","second compound 0.949 µM, first compound 0.00316 µM",91.2%
same,"viability, T/C","second compound 0.949 µM, first compound 0.01 µM",92.4%
same,"viability, T/C",[9],99.4%
same,"viability, T/C",[10],85.5%
same,"viability, T/C","second compound 3 µM, first compound 0.000316 µM",76.4%
same,"viability, T/C","second compound 3 µM, first compound 0.001 µM",78.5%
same,"viability, T/C","second compound 3 µM, first compound 0.00316 µM",80.6%
same,"viability, T/C","second compound 3 µM, first compound 0.01 µM",70.3%
same,"viability, T/C",[11],75.3%
same,"viability, T/C",[12],65.7%
O=C(c1cc(Cc2n[nH]c(=O)c3ccccc23)ccc1F)N1CCN(C(=O)C2CC2)CC1 + CCN1C(C(=O)NC23CCC(C(=O)O)(CC2)CC3)C(c2cccc(Cl)c2F)C2(C(=O)Nc3cc(Cl)ccc32)C12CCCCC2,IC50,second compound 0.00949 µM,> 10 µM
same,IC50,second compound 0.03 µM,> 10 µM
same,IC50,second compound 0.0949 µM,> 10 µM
same,IC50,second compound 0.3 µM,> 10 µM
same,IC50,second compound 0.949 µM,> 10 µM
same,IC50,second compound 3 µM,> 10 µM
same,"viability, T/C",[1],101%
same,"viability, T/C",[2],87.5%
same,"viability, T/C","second compound 0.00949 µM, first compound 0.316 µM",95.5%
same,"viability, T/C","second compound 0.00949 µM, first compound 1 µM",95%
same,"viability, T/C","second compound 0.00949 µM, first compound 3.16 µM",88%
same,"viability, T/C","second compound 0.00949 µM, first compound 10 µM",67.5%
same,"viability, T/C",[3],101%
same,"viability, T/C",[4],102%
same,"viability, T/C","second compound 0.03 µM, first compound 0.316 µM",97.6%
same,"viability, T/C","second compound 0.03 µM, first compound 1 µM",93.3%
same,"viability, T/C","second compound 0.03 µM, first compound 3.16 µM",88.4%
same,"viability, T/C","second compound 0.03 µM, first compound 10 µM",64.3%
same,"viability, T/C",[5],101%
same,"viability, T/C",[6],93%
same,"viability, T/C","second compound 0.0949 µM, first compound 0.316 µM",108%
same,"viability, T/C","second compound 0.0949 µM, first compound 1 µM",104%
same,"viability, T/C","second compound 0.0949 µM, first compound 3.16 µM",90.6%
same,"viability, T/C","second compound 0.0949 µM, first compound 10 µM",58.6%
same,"viability, T/C",[7],95.8%
same,"viability, T/C",[8],104%
same,"viability, T/C","second compound 0.3 µM, first compound 0.316 µM",107%
same,"viability, T/C","second compound 0.3 µM, first compound 1 µM",96.8%
same,"viability, T/C","second compound 0.3 µM, first compound 3.16 µM",96.9%
same,"viability, T/C","second compound 0.3 µM, first compound 10 µM",68.4%
same,"viability, T/C",[9],104%
same,"viability, T/C",[10],89.5%
same,"viability, T/C","second compound 0.949 µM, first compound 0.316 µM",96.3%
same,"viability, T/C","second compound 0.949 µM, first compound 1 µM",91.2%
same,"viability, T/C","second compound 0.949 µM, first compound 3.16 µM",75.5%
same,"viability, T/C","second compound 0.949 µM, first compound 10 µM",66.3%
same,"viability, T/C",[11],75.2%
same,"viability, T/C",[12],67.3%
same,"viability, T/C","second compound 3 µM, first compound 0.316 µM",74.2%
same,"viability, T/C","second compound 3 µM, first compound 1 µM",73.1%
same,"viability, T/C","second compound 3 µM, first compound 3.16 µM",72.5%
same,"viability, T/C","second compound 3 µM, first compound 10 µM",64.8%
